Laboratory results: paper PMC2667487, “Cellular localization of kinin B1 receptor in the spinal cord of streptozotocin-diabetic rats with a fluorescent [N^α-Bodipy]-des-Arg^9-bradykinin” (Journal of Neuroinflammation, 2009)

What was measured:
[1] = tested on: B1R in primary microglial cells; experiment: B1R induction and BdABK labeling in primary cultured microglial cells; format: cell-based, rat; conditions: 300 nM BK, 24 h
Description: Mixed glial cultures were prepared following the protocol of McCarthy and de Vellis with some modifications. Briefly, forebrains were dissected out from one litter of 2-day-old Sprague-Dawley rat pups and the meninges were stripped off before enzymatic and mechanical dissociation. For enzymatic dissociation, HBSS containing 0.25% trypsin (Gibco 15090-046) was used. The tissue-trypsin suspension was incubated for 20 min at 37°C in a water bath with intermittent shaking. After the waiting time for the trypsin digestion is over we added to the tissue-trypsin suspension a mixture of prewarmed DMEM/Dnase I (Sigma DN-25, Dnase I final concentration 0. 25 mg/ml) followed by an incubation for 4 min at 37°C. The resulting suspension was dispersed by a mild mechanical trituration which consisted in the passage through 18-, 22- and 25- gauge needles. This cell suspension was then filtred through 70 μm strainer (BD Falcon 352350). After extensive washs in prewarmed HBSS, these dissociated cells were resuspended and plated in 75-cm^2 Falcon tissue-culture flasks (BD Biosciences) previously coated with 10 μg/ml poly-D-lysine (PDL). These mixed cells were growing at 37°C and 5% CO2 in DMEM (Gibco) supplemented with 10% FBS, penicillin (100 units/ml), and streptomycin ([…]). The media was changed every 2 or 3 days thereafter. […]

B2 receptors = conditions: via B2 receptors, protein kinase C; cited from earlier work
Source text: (§1) NF-κB upregulates B1R upon binding to its nuclear promoter.

[2] = tested on: B1R in primary microglial cells; conditions: cited from earlier work
Source text: as §1

BK: bradykinin, preferential B2R agonist; used to induce B1R in microglia (RPPGFSPFR; Bradykinin; UniProt P01042 381-389, looked up)
induction of B1R in primary microglial cells [1]: B1R was induced | intracellular calcium and NF-κB activation (B2 receptors): induces elevation of intracellular calcium leading to the phosphorylation and activation of NF-κB | B1R expression in cultured rat microglia exposed to BK [2]: B1R can be expressed in cultured rat microglia
